From PubChem BioAssay AID1259407 (Chemical Carcinogenesis Research Information System (CCRIS), 2018)
Active and inactive are the calls of the source. How the calls were made is not given here.

System: CCRIS mutagenicity, Ames/micronucleus/aberration tests
Test: CCRIS mutagenicity studies
[1] = Test System: AMES SALMONELLA TYPHIMURIUM, Strain/Indicator: TA98, Metabolic Activation: HAMSTER, LIVER, S-9, AROCLOR 1254, Method: STANDARD PLATE
[2] = Test System: AMES SALMONELLA TYPHIMURIUM, Strain/Indicator: TA98, Metabolic Activation: NONE, Method: STANDARD PLATE
[3] = Test System: AMES SALMONELLA TYPHIMURIUM, Strain/Indicator: TA98, Metabolic Activation: RAT, LIVER, S-9, AROCLOR 1254, Method: STANDARD PLATE
[4] = Test System: AMES SALMONELLA TYPHIMURIUM, Strain/Indicator: TA100, Metabolic Activation: HAMSTER, LIVER, S-9, AROCLOR 1254, Method: STANDARD PLATE
[5] = Test System: AMES SALMONELLA TYPHIMURIUM, Strain/Indicator: TA100, Metabolic Activation: NONE, Method: STANDARD PLATE
[6] = Test System: AMES SALMONELLA TYPHIMURIUM, Strain/Indicator: TA100, Metabolic Activation: RAT, LIVER, S-9, AROCLOR 1254, Method: STANDARD PLATE
[7] = Test System: AMES SALMONELLA TYPHIMURIUM, Strain/Indicator: TA1535, Metabolic Activation: HAMSTER, LIVER, S-9, AROCLOR 1254, Method: STANDARD PLATE
[8] = Test System: AMES SALMONELLA TYPHIMURIUM, Strain/Indicator: TA1535, Metabolic Activation: NONE, Method: STANDARD PLATE
[9] = Test System: AMES SALMONELLA TYPHIMURIUM, Strain/Indicator: TA1535, Metabolic Activation: RAT, LIVER, S-9, AROCLOR 1254, Method: STANDARD PLATE
[10] = Test System: AMES SALMONELLA TYPHIMURIUM, Strain/Indicator: TA1537, Metabolic Activation: HAMSTER, LIVER, S-9, AROCLOR 1254, Method: STANDARD PLATE
[11] = Test System: AMES SALMONELLA TYPHIMURIUM, Strain/Indicator: TA1537, Metabolic Activation: NONE, Method: STANDARD PLATE
[12] = Test System: AMES SALMONELLA TYPHIMURIUM, Strain/Indicator: TA1537, Metabolic Activation: RAT, LIVER, S-9, AROCLOR 1254, Method: STANDARD PLATE
[13] = Test System: AMES SALMONELLA TYPHIMURIUM, Strain/Indicator: TA1538, Metabolic Activation: HAMSTER, LIVER, S-9, AROCLOR 1254, Method: STANDARD PLATE
[14] = Test System: AMES SALMONELLA TYPHIMURIUM, Strain/Indicator: TA1538, Metabolic Activation: NONE, Method: STANDARD PLATE
[15] = Test System: AMES SALMONELLA TYPHIMURIUM, Strain/Indicator: TA1538, Metabolic Activation: RAT, LIVER, S-9, AROCLOR 1254, Method: STANDARD PLATE
[16] = Test System: AMES SALMONELLA TYPHIMURIUM, Strain/Indicator: TA98, Metabolic Activation: NONE, Method: PREINCUBATION
[17] = Test System: AMES SALMONELLA TYPHIMURIUM, Strain/Indicator: TA100, Metabolic Activation: NONE, Method: PREINCUBATION

Compound: CC/C(=C(\c1ccccc1)c1ccc(OCCN(C)C)cc1)c1ccccc1
- mutagenic call (End Point: IN VITRO CHROMOSOMAL ABERRATIONS, Test System: SYRIAN HAMSTER EMBRYO (SHE) CELLS, Metabolic Activation: NONE): inactive; negative
- mutagenic call (End Point: IN VITRO MICRONUCLEUS, Test System: AHH-1 CELLS, Metabolic Activation: NONE): inactive; negative
- mutagenic call (End Point: IN VITRO MICRONUCLEUS, Test System: MCL-5 CELLS, Metabolic Activation: NONE): active; positive
- mutagenic call [1]: inactive; negative
- mutagenic call [2]: inactive; negative
- mutagenic call [3]: inactive; negative
- mutagenic call [4]: inactive; negative
- mutagenic call [5]: inactive; negative
- mutagenic call [6]: inactive; negative
- mutagenic call [7]: inactive; negative
- mutagenic call [8]: inactive; negative
- mutagenic call [9]: inactive; negative
- mutagenic call [10]: inactive; negative
- mutagenic call [11]: inactive; negative
- mutagenic call [12]: inactive; negative
- mutagenic call [13]: inactive; negative
- mutagenic call [14]: inactive; negative
- mutagenic call [15]: inactive; negative
- mutagenic call (Test System: CHINESE HAMSTER V-79, Strain/Indicator: V-79 (HPRT)/6-THIOGUANINE, Metabolic Activation: NONE): inactive; negative

Compound: C1CCC2OCCOCCOC3CCCCC3OCCOCCOC2C1 (configuration not stated)
- mutagenic call [2]: inactive; negative
- mutagenic call [3]: inactive; negative
- mutagenic call [5]: inactive; negative
- mutagenic call [6]: inactive; negative
- mutagenic call (Test System: AMES SALMONELLA TYPHIMURIUM, Strain/Indicator: TA1530, Metabolic Activation: NONE, Method: STANDARD PLATE): inactive; negative
- mutagenic call (Test System: AMES SALMONELLA TYPHIMURIUM, Strain/Indicator: TA1530, Metabolic Activation: RAT, LIVER, S-9, AROCLOR 1254, Method: STANDARD PLATE): inactive; negative
- mutagenic call [11]: inactive; negative
- mutagenic call [12]: inactive; negative

Compound: CC1=CC(=C(c2ccc(N)cc2)c2ccc(N)cc2)C=CC1=N
- mutagenic call [16]: inactive; negative
- mutagenic call (Test System: AMES SALMONELLA TYPHIMURIUM, Strain/Indicator: TA98, Metabolic Activation: RAT LIVER S-9, PHENOBARBITAL AND BETA-NAPHTHOFLAVONE, Method: PREINCUBATION): inactive; negative
- mutagenic call [17]: inactive; negative
- mutagenic call (Test System: AMES SALMONELLA TYPHIMURIUM, Strain/Indicator: TA100, Metabolic Activation: RAT LIVER S-9, PHENOBARBITAL AND BETA-NAPHTHOFLAVONE, Method: PREINCUBATION): inactive; negative
- mutagenic call (Test System: AMES SALMONELLA TYPHIMURIUM, Strain/Indicator: TA100, Method: PREINCUBATION): active; positive
- mutagenic call (Test System: AMES SALMONELLA TYPHIMURIUM, Strain/Indicator: TA1535, Metabolic Activation: NONE, Method: PREINCUBATION): inactive; negative
- mutagenic call (Test System: AMES SALMONELLA TYPHIMURIUM, Strain/Indicator: TA1535, Metabolic Activation: RAT LIVER S-9, PHENOBARBITAL AND BETA-NAPHTHOFLAVONE, Method: PREINCUBATION): inactive; negative
- mutagenic call (Test System: AMES SALMONELLA TYPHIMURIUM, Strain/Indicator: TA1537, Metabolic Activation: NONE, Method: PREINCUBATION): inactive; negative
- mutagenic call (Test System: AMES SALMONELLA TYPHIMURIUM, Strain/Indicator: TA1537, Metabolic Activation: RAT LIVER S-9, PHENOBARBITAL AND BETA-NAPHTHOFLAVONE, Method: PREINCUBATION): inactive; negative
- mutagenic call (Test System: AMES SALMONELLA TYPHIMURIUM, Strain/Indicator: TA1538, Metabolic Activation: NONE, Method: PREINCUBATION): inactive; negative
- mutagenic call (Test System: AMES SALMONELLA TYPHIMURIUM, Strain/Indicator: TA1538, Metabolic Activation: RAT LIVER S-9, PHENOBARBITAL AND BETA-NAPHTHOFLAVONE, Method: PREINCUBATION): inactive; negative
- mutagenic call (Test System: E.COLI, Strain/Indicator: WP2UVRA, Metabolic Activation: NONE, Method: PREINCUBATION): inactive; negative
- mutagenic call (Test System: E.COLI, Strain/Indicator: WP2UVRA, Metabolic Activation: RAT LIVER S-9, PHENOBARBITAL AND BETA-NAPHTHOFLAVONE, Method: PREINCUBATION): inactive; negative

Compound: O=C(/C=C/c1ccccc1)c1ccc([N+](=O)[O-])cc1
- mutagenic call [5]: inactive; negative
- mutagenic call [6]: inactive; negative

Compound: Cc1cc2c(C)c3ccccc3nc2c2ccccc12
- mutagenic call (Test System: AMES SALMONELLA TYPHIMURIUM, Strain/Indicator: TA97A, Metabolic Activation: NONE, Method: PREINCUBATION): active; positive
- mutagenic call [16]: inactive; negative
- mutagenic call [17]: active; positive
- mutagenic call (Test System: AMES SALMONELLA TYPHIMURIUM, Strain/Indicator: TA102, Metabolic Activation: NONE, Method: PREINCUBATION): active; positive

Compound: CCN(CC)c1ccc(N=Nc2c(Cl)cc([N+](=O)[O-])cc2[N+](=O)[O-])c(NC(C)=O)c1
- mutagenic call (End Point: IN VITRO CHROMOSOMAL ABERRATIONS, Test System: CHL CELLS, Metabolic Activation: NONE): inactive; negative; precipitation of test chemical observed above 0.01 mg/ml

Compound: Oc1ccc2c(c1)OCO2
- mutagenic call [1]: inactive; negative
- mutagenic call [2]: inactive; negative
- mutagenic call [3]: inactive; negative
- mutagenic call [4]: inactive; negative
- mutagenic call [5]: inactive; negative
- mutagenic call [6]: inactive; negative
- mutagenic call [7]: inactive; negative
- mutagenic call [8]: inactive; negative
- mutagenic call [9]: inactive; negative
- mutagenic call [10]: inactive; negative
- mutagenic call [11]: inactive; negative
- mutagenic call [12]: inactive; negative
- mutagenic call [13]: inactive; negative
- mutagenic call [14]: inactive; negative
- mutagenic call [15]: inactive; negative
- mutagenic call (Test System: MOUSE LYMPHOMA, Strain/Indicator: L5178Y (TK+/TK-), Metabolic Activation: NONE, Method: SUSPENSION/PLATE): active; positive
- mutagenic call (Test System: MOUSE LYMPHOMA, Strain/Indicator: L5178Y (TK+/TK-), Metabolic Activation: RAT, LIVER, S-9, AROCLOR 1254, Method: SUSPENSION/PLATE): active; positive
- mutagenic call (Test System: Mouse lymphoma, Strain/Indicator: L5178Y (tk+/tk-), Metabolic Activation: None, Method: Suspension/plate): active; positive
- mutagenic call (Test System: Mouse lymphoma, Strain/Indicator: L5178Y (tk+/tk-), Metabolic Activation: Rat, Liver, S-9, Aroclor 1254, Method: Suspension/plate): active; positive

Compound: O=CN(O)c1ccc(Cl)cc1
- mutagenic call [2]: inactive; negative
- mutagenic call [3]: active; positive
- mutagenic call [5]: inactive; negative
- mutagenic call [6]: active; positive

Compound: CCn1c(N)nc2c3cccnc3ccc21
- mutagenic call (Test System: AMES SALMONELLA TYPHIMURIUM, Strain/Indicator: TA98, Metabolic Activation: RAT, LIVER, S-9, AROCLOR 1254, Method: PREINCUBATION): active; positive

Compound: Oc1ccc2cccc(O)c2c1
- mutagenic call (Test System: AMES SALMONELLA TYPHIMURIUM, Strain/Indicator: TA2637, Metabolic Activation: NONE, Method: PREINCUBATION): active; positive
